The values that follow are results of earlier work, collected in PMC2686615 (International Immunology, 2009).

Data set [1] deals with HLA-DQ transgenic mice. The note with it: immunization with peptides; cited from earlier work.
The subject of data set [2] is NOD.DQ8 mice. The note with it: oral response to gliadin, 26 peptides tested; cited from earlier work.

Take ENVVVKVYTV [allergen P2 102–110]: in data set [1], the T cell response result was “elicited T cell responses”.

Regarding QSTYQLLQE [gliadin 147–155], the T cell response entry in data set [2] is reported as “negative”.

Take VVTVKVMGD [allergen P2 105–113]: the T cell response entry in data set [1] is recorded as “failed to stimulate T cell responses”.
